The values that follow come from the OPERA property sets (Mansouri et al. 2018).

`CCN(CCO)c1ccc(N=Nc2ccc([N+](=O)[O-])cc2)cc1` displayed a logP of 4.3.
Then `CCn1c(O)c(N=Nc2ccc(Cl)cc2[N+](=O)[O-])c(C)c(C#N)c1=O`, with 3.4; and `Nc1ccc(N)c2c1C(=O)c1ccccc1C2=O`, with 3.
In the case of `Cc1cc(N(CCO)CCO)ccc1N=Nc1ccc([N+](=O)[O-])cc1Cl` it was 4.3; in that of `O=C1c2ccccc2C(=O)C1c1ccc2ccccc2n1`, 4.1; in that of `COc1cc(N)c2c(c1N)C(=O)c1ccccc1C2=O`, 3.5.
Then `COc1cc(N=Nc2c(Br)cc([N+](=O)[O-])cc2[N+](=O)[O-])c(NC(C)=O)cc1N(CCOC(C)=O)CCOC(C)=O`, with 4.8; and `CNc1cccc2c1C(=O)c1ccccc1C2=O`, with 4.1; and `O=C1c2ccccc2C(=O)C1c1nc2ccccc2cc1O`, with 5.
`C=CCN(CCC#N)c1cc(NC(C)=O)c(N=Nc2c(Br)cc([N+](=O)[O-])cc2[N+](=O)[O-])cc1OC` displayed a logP of 5.4.
As to `O=[N+]([O-])c1cc(S(=O)(=O)Nc2ccccc2)ccc1Nc1ccccc1`, the logP turned out to be 4.6.
Then `N#CCCN(CCO)c1ccc(N=Nc2ccc([N+](=O)[O-])cc2Cl)cc1`, with 4.

What is called logP is a log measure of how a compound divides between an organic and an aqueous phase. Read a low logP as a more hydrophilic compound.
